# From patent US20100112037A1, “S1P RECEPTOR AGONISTS FOR THE TREATMENT OF CEREBRAL MALARIA” (priority 2008, published 2010)
# Legend:
# [1] = Topical and transdermal administration: blood cell counts (CBC); type: in vivo, F1 hybrid mice; conditions: topical (200 μL of 1 mg/mL solution) and transdermal patch; measured six hours after administration; FIG. 2
# Procedure: Drug-in-adhesive transdermal patches containing FTY720 were made by dissolving FTY720 in adhesive (Duro-Tak 87-2196, National Starch & Chemical Co.) at a ratio of 1 part compound to 10 parts adhesive (weight:weight). Adhesive containing FTY720 was layered onto a release liner (Scotchpak 1022 PET Film, 3M Corporation) using a Bird applicator with a 50 to 200 micron gap. Organic solvents were removed from the film by baking at 100° C. for 15 minutes. The dried adhesive was then laminated onto a backing membrane (CoTran 9720 polyethylene film, 3M Corporation).
# Topical and transdermal dosage forms of FTY720 were administered to F1 hybrid mice (n=5 mice per group). The blood of the mice was collected at various time points for CBC and PK analysis.
# Topical dosing of FTY720 was achieved using 200 μL of a 1 mg/mL solution composed of 70% ethanol, 29.9% water, and 0.1% DMSO.
# Transdermal dosing was achieved using patches made as described above. Patches were cut from the laminate and applied to bare skin above the front shoulder of the mice. Dosage was controlled by adjusting the thickness of the compound/adhesive applied to the release liner and number or size of patches. Fur was trimmed from the site of application and then shaved to expose bare skin. To improve adhesion, the skin was further prepped by swabbing with 70% ethanol and then allowed to air dry prior to placing the patch.
# [2] = tested on: P. berghei ANKA; assay: Cerebral malaria model (survival of infected mice); type: in vivo, C56B1/6 mice; conditions: FTY720 0.3 mg/kg/day by gavage, administered one day prior to malaria infection; vs control; two independent experiments, Log-Rank Test, p=0.0002; FIG. 1
# Procedure: A well characterized and widely used animal model of CM was used to test the efficacy of compounds. See, e.g., Golenser, supra, at 585. In each experiment, two groups of C56B1/6 mice were infected with 1 million parasites (P. berghei ANKA) i.p. in 500 μl of media. The first group was the control group, and the second was treated daily by gavage with FTY720 (0.3 mg/kg/day).
# After at least two doses of the drug had been administered, tail vein blood was taken from the mice, and flow cytometry analysis was used to assess the levels of B and T cells, using antibodies to CD3, CD4, CD8 and CD19. The animals were monitored daily for body weight and parasitaemia, and twice daily for survival.
compound,measurement,setting,value
"CCCCCCCCc1ccc(CCC(N)(CO)CO)cc1 [FTY720, 2-amino-2-[2-(4-octylphenyl)ethyl]propane-1,3-diol]",lymphocyte count,[1],affected
same,neutrophil count,[1],affected
same,white blood cell count,[1],affected
same,survival,[2],significant survival advantage
